Source: patent publication US20230172849A1, “INHALED STATINS FOR TREATMENT OF VIRAL RESPIRATORY DISEASES” (priority 2020, published 2023)
“Also recorded” adds a separate entry of the source. Where two headings read alike, the source gives them in different places.

How the values were obtained:
SARS-CoV-2 [1] = experiment: hamster model of SARS-CoV-2 infection, intranasally inhaled treatment; format: in vivo
SARS-CoV-2 [2] = format: cell-based
[3] = tested on: SARS-CoV-2-induced cytokine and chemokine production; format: cell-based; conditions: Calu-3 cells; Cases A-C
SARS-CoV-2 [4] = experiment: SARS-CoV-2 viral load by RT-qPCR in Calu-3 supernatant; format: cell-based
Calu-3 cells = Calu-3 cells or Vero cells
SARS-CoV-2 [5] = experiment: combination therapy, viral load by RT-PCR (ORF1ab gene) in Calu-3 cells; format: cell-based; parameters: key to enhanced decrease of viral load, combination vs two single agents: Each combination that showed an enhanced decrease of viral load as compared with the two single agents is denoted by “E”; Combinations that showed a slight trend towards an enhanced decrease of viral load as compared with the two single agents is denoted by “(e)”; —
[6] = biological target: SARS-CoV-2 Spike S1 (RBD) (Severe acute respiratory syndrome coronavirus 2, UniProt P0DTC2); experiment: biochemical; format: binding

O=C([O-])C[C@H](O)C[C@H](O)/C=C/c1c(C2CC2)nc2ccccc2c1-c1ccc(F)cc1.O=C([O-])C[C@H](O)C[C@H](O)/C=C/c1c(C2CC2)nc2ccccc2c1-c1ccc(F)cc1.[Ca+2] [INS103, Pitavastatin Calcium] was tested, and the “viral titers in throat swabs” value (SARS-CoV-2 [1]; 3 mg/kg i.n., Day 1) was “reduced viral titers”, the “viral titer in the nasal swabs and tracheas” value (SARS-CoV-2 [1]; 3 mg/kg i.n., Day 3 post-infection) was “reduction of viral titer” and the “viral titer in lung samples” value (SARS-CoV-2 [1]; 3 mg/kg i.n., Day 3 post-infection, R4 samples) was “significant decrease in viral titer”. The “percentage of affected lung (inflammation)” value (SARS-CoV-2 [1]; 3 mg/kg i.n., day 6, virus-infected controls ˜50%) was about 30%, the “viral titers in throat swabs (reduction trend)” value (SARS-CoV-2 [1]; 3 mg/kg i.n., days 2 or 3) was “not observed” and the “viral titers from the nasal swabs” value (SARS-CoV-2 [1]; 3 mg/kg i.n., vs DPBS or control vehicle (DV)) was “trend of reduced viral titers”. The “lung inflammation (histopathology)” value (SARS-CoV-2 [1]; 3 mg/kg i.n., vs controls) was “reduction in acute ling inflammation; also recorded: mild/moderate reduction in lung inflammation”, the “weight loss of infected hamsters” value (SARS-CoV-2 [1]; pitavastatin 3 mg/kg i.n., D-2 to 5, statistical significance at day 4) was “less weight loss” and the “SARS-CoV-2-induced loss of cell viability in Calu-3 cells (overall conclusion)” value (SARS-CoV-2 [2]; Calu-3 cells) was “inhibited SARS-CoV-2-induced loss of cell viability”. For the same molecule, the “protection against virus-induced loss of cell viability” value (from here on “protection against virus-induced loss”) (SARS-CoV-2 [2]; Case A: compound added 1 h after infection, 72 h contact) was “dose-dependent protection”, the “Average (percent cell viability)” value (SARS-CoV-2 [2]; Case A: compound added 1 h after infection, 72 h contact, 0.2 uM) was 4.83% and the “Average (percent cell viability)” value (SARS-CoV-2 [2]; Case A: compound added 1 h after infection, 72 h contact, 1 uM) was 9.66%. The “Average (percent cell viability)” value (SARS-CoV-2 [2]; Case A: compound added 1 h after infection, 72 h contact, 5 uM) was 17.37%, the “Average (percent cell viability)” value (SARS-CoV-2 [2]; Case B: compound added 24 h after infection, 48 h contact, 0.2 uM) was 0.5243% and the “Average (percent cell viability)” value (SARS-CoV-2 [2]; Case B: compound added 24 h after infection, 48 h contact, 1 uM) was 1.724%. For the same molecule, the “Average (percent cell viability)” value (SARS-CoV-2 [2]; Case B: compound added 24 h after infection, 48 h contact, 5 uM) was −3.025%, the “Average (percent cell viability)” value (SARS-CoV-2 [2]; Case C: compound added 48 h after infection, 24 h contact, 0.2 uM) was 1.847% and the “Average (percent cell viability)” value (SARS-CoV-2 [2]; Case C: compound added 48 h after infection, 24 h contact, 1 uM) was −1.192%. For the same molecule, the “Average (percent cell viability)” value (SARS-CoV-2 [2]; Case C: compound added 48 h after infection, 24 h contact, 5 uM) was −1.208%, the “Average (percent cell viability)” value (SARS-CoV-2 [2]; Case D: pre-treated 6 h, then infected 72 h, 0.2 uM) was 34.83% and the “Average (percent cell viability)” value (SARS-CoV-2 [2]; Case D: pre-treated 6 h, then infected 72 h, 1 uM) was 32.21%. The “Average (percent cell viability)” value (SARS-CoV-2 [2]; Case D: pre-treated 6 h, then infected 72 h, 5 uM) was 28.3%, the “protection against virus-induced loss” value (SARS-CoV-2 [2]; Case D: pre-treated 6 hours, then infected 72 hours) was “dose-independent protection” and the “protection against virus-induced loss” value (SARS-CoV-2 [2]; Case D: pre-treated 6 hours, then infected 72 hours, listed as INS-103) was “inhibit SARS-CoV-2-induced loss of cell viability”. The “Average (percent cell viability)” value (SARS-CoV-2 [2]; Case E: pre-treated 24 h, then infected 72 h, 0.2 uM) was −3.00%, the “Average (percent cell viability)” value (SARS-CoV-2 [2]; Case E: pre-treated 24 h, then infected 72 h, 1.0 uM) was −0.20% and the “Average (percent cell viability)” value (SARS-CoV-2 [2]; Case E: pre-treated 24 h, then infected 72 h, 5.0 uM) was 46.71%. For the same molecule, the “protection against virus-induced loss” value (SARS-CoV-2 [2]; Case E: pre-treated 24 hours, then infected 72 hours, high and medium doses of INS102, high dose of INS103) was “dose-dependent protection”, the “anti-viral protection (cell viability)” value (SARS-CoV-2 [2]; Case F: 1 hour, then virus 72 hours, high dose of INS102, all doses of INS103) was “dose-dependent anti-viral protection” and the “Average (percent cell viability)” value (SARS-CoV-2 [2]; Case F: compound 1 h before infection (coinc 1 h), then virus 72 h, 0.2 uM) was 9.881%. The “Average (percent cell viability)” value (SARS-CoV-2 [2]; Case F: compound 1 h before infection (coinc 1 h), then virus 72 h, 1 uM) was 15.82%, the “Average (percent cell viability)” value (SARS-CoV-2 [2]; Case F: compound 1 h before infection (coinc 1 h), then virus 72 h, 5 uM) was 19.96% and the “SARS-CoV-2-induced cytokine and chemokine production” value [3] was “inhibited”. The SARS-CoV-2 viral load (SARS-CoV-2 [4]; Cases A-C, 5, 1, 0.2 μM) was “dose-dependently reduced viral load”, the SARS-CoV-2 viral load (SARS-CoV-2 [4]; high dose 5 uM) was “reduced SARS-CoV-2 viral load” and the cytotoxicity (Calu-3 cells) was “not cytotoxic”. The “decrease in viral load, combination with remdesivir or dexamethasone vs monotherapies” value (SARS-CoV-2 [5]; FIGS. 30, 31, statin and SARS-CoV-2 (MOI 0.01) mixed 1 hour at room temperature, 24 hours post infection) was “enhanced”, the “enhanced decrease of viral load, combination vs two single agents” value (shortened to “enhanced decrease of viral load”) (SARS-CoV-2 [5]; statin 0.2 μM + Dex 0.1 μM) was “—” and the “enhanced decrease of viral load” value (SARS-CoV-2 [5]; statin 0.2 μM + Dex 1 μM) was “(e)”. For the same molecule, the “enhanced decrease of viral load” value (SARS-CoV-2 [5]; statin 0.2 μM + Dex 10 μM) was “—”, the “enhanced decrease of viral load” value (SARS-CoV-2 [5]; statin 0.2 μM + Remde 1) was “(e)” and the “enhanced decrease of viral load” value (SARS-CoV-2 [5]; statin 0.2 μM + Remde 10) was “(e)”. The “enhanced decrease of viral load” value (SARS-CoV-2 [5]; statin 0.2 μM + Remde 100) was “(e)”, the “enhanced decrease of viral load” value (SARS-CoV-2 [5]; statin 1 μM + Dex 0.1 μM) was “—” and the “enhanced decrease of viral load” value (SARS-CoV-2 [5]; statin 1 μM + Dex 1 μM) was “enhancement in the decrease of viral load and E”. The “enhanced decrease of viral load” value (SARS-CoV-2 [5]; statin 1 μM + Dex 10 μM) was “—”, the “enhanced decrease of viral load” value (SARS-CoV-2 [5]; statin 1 μM + Remde 1) was “—” and the “enhanced decrease of viral load” value (SARS-CoV-2 [5]; statin 1 μM + Remde 10) was “—”. For the same molecule, the “enhanced decrease of viral load” value (SARS-CoV-2 [5]; statin 1 μM + Remde 100) was “—”, the “enhanced decrease of viral load” value (SARS-CoV-2 [5]; statin 5 μM + Dex 0.1 μM) was “E” and the “enhanced decrease of viral load” value (SARS-CoV-2 [5]; statin 5 μM + Dex 1 μM) was “—”. The “enhanced decrease of viral load” value (SARS-CoV-2 [5]; statin 5 μM + Dex 10 μM) was “—”, the “enhanced decrease of viral load” value (SARS-CoV-2 [5]; statin 5 μM + Remde 1) was “—” and the “enhanced decrease of viral load” value (SARS-CoV-2 [5]; statin 5 μM + Remde 10) was “—”. The “enhanced decrease of viral load” value (SARS-CoV-2 [5]; statin 5 μM + Remde 100) was “—”, the “binding to SARS-COV-2 S-protein (in words)” value ([6]; MST binding assay) was “bind with SARS-COV-2 S-protein at nanomolar (nM) concentrations” and the Kd ([6]; Table 1, MST, 25 nM labelled SARS-CoV-2 S1, read-out: Affinity) was 678 to 1000 nM. The Remarks ([6]; Table 1, binding to SARS-CoV-2 S1) was “Good binding”, the S/N ([6]; Table 1, signal to noise ratio of MST binding) was 14.4-17.3 and the Kd ([6]; Table 2, read-out: Affinity (nM) of binding to SARS-COV2 Spike protein) was 678 to 1000 nM.
